Test results reported in patent US10544159B2, “Artemisinin derivatives, methods for their preparation and their use as antimalarial agents” (priority 2012, dated 2020).

Key:
P. berghei ANKA = assay: Antimalarial activity in Plasmodium berghei-infected mice; type: in vivo; parameters: fold higher survival rate than in the absence of treatment: concentration or dose not given beside the values; conditions: male C57BL6 mice, after day 7
Description: Briefly, asynchronous P. falciparum (strain 3d7) cultures were maintained at 37° C. at >10% parasitemia in fresh human red blood cells (2% hematocrit) in complete malaria medium. After 4 days (i.e., after 2 replicative parasitic cycles) flasks were synchronized with 5% sorbitol. 72 hours after synchronization, cells were plated and treated with the artemisinin derivatives at various concentrations. After 48 hours of incubation, the cells were lysed and labeled with SybrGreen and fluorescence emission was measured (excitation at 485 nm, emission at 530 nm). […] For the in vivo studies, male C57BL6 mice (6-8 weeks old) were infected with 0.7×10^5 P. berghei ANKA iRBCs and then treated with intraperitoneal injections of the compounds starting from day 3-5 post infection. A set of mice was left untreated and served as negative control. Survival was monitored and parasitemia determined SYBR-green (SYBRGr) staining of infected red blood cells and subsequent flow cytometric analysis.

wild-type P450BM3 = wild-type P450BM3 (Priestia megaterium, UniProt P14779); conditions: fatty acid laurate with wild-type P450BM3; read-out: equilibrium dissociation constant; cited from earlier work
Sequence of wild-type P450BM3 (P14779 whole entry): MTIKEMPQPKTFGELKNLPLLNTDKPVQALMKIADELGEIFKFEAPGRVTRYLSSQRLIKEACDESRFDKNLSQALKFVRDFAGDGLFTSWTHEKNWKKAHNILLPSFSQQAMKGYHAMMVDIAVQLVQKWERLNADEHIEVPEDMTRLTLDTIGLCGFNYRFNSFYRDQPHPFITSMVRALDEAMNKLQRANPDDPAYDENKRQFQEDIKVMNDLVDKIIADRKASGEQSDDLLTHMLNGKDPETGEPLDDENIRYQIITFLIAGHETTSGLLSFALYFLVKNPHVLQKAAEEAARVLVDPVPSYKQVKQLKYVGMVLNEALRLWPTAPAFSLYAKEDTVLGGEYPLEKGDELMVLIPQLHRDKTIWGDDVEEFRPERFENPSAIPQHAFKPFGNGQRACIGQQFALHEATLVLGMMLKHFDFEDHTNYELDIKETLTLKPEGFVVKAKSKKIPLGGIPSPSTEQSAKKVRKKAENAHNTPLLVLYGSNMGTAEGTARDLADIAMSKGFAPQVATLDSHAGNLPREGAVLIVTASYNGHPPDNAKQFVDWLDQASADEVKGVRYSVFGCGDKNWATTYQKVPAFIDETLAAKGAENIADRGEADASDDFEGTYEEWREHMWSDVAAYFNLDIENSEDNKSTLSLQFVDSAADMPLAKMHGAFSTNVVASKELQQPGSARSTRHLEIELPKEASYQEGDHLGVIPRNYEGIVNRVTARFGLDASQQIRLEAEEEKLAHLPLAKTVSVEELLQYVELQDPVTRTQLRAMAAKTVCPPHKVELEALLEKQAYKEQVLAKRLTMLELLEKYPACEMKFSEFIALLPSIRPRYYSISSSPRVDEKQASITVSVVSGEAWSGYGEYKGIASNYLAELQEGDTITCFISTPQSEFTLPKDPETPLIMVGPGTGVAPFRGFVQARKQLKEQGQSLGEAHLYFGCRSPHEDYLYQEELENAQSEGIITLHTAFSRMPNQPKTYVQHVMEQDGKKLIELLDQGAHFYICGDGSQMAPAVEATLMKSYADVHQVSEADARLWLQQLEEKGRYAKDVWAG

[1] = target: P450 variant FL#62 (SEQ ID NO. 8) (Priestia megaterium, UniProt P14779, A181T/A185V/A198V/A291V/A83V/E253G/F206C/F82S/F88A/H237Q/L354V/P143S/R256S/S227R/T176I/V79A); conditions: 0.5 mM substrate, 1 μM FL#62, 12 hours
Sequence of P450 variant FL#62 (SEQ ID NO. 8) (P14779 other isoform, or with tags, fused parts or gaps with the stated changes): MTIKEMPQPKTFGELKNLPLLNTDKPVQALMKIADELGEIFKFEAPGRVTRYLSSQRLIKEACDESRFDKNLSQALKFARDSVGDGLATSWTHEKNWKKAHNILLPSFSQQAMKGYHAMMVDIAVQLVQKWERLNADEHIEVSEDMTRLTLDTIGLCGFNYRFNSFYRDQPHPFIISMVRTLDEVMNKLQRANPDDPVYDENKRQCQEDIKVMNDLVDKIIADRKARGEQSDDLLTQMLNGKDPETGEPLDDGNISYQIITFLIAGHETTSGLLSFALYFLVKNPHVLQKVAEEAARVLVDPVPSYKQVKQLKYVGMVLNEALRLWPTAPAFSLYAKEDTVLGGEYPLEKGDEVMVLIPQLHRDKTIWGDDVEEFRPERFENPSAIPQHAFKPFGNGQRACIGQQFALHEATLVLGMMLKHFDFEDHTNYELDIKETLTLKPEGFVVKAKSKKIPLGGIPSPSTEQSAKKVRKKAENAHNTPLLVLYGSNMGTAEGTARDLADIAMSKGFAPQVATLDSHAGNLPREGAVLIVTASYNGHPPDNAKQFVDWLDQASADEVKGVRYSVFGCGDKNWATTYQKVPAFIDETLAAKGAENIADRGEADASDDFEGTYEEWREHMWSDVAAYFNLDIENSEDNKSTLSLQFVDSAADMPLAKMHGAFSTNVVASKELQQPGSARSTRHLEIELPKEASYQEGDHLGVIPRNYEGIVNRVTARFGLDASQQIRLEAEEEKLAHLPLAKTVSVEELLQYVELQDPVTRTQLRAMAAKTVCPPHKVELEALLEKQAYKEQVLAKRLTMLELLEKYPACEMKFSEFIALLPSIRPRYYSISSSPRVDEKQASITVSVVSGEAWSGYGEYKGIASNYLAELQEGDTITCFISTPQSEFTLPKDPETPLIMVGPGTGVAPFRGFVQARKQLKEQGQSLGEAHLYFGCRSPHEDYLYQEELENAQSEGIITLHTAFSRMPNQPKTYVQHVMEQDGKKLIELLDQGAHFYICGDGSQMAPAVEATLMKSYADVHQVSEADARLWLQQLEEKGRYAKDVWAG
Description: Reaction conditions were: 0.5 mM substrate, 1 μM FL#62 (SEQ ID NO: 8), 2 μM PTDH, 100 μM NADP^+, and 50 mM sodium phosphite in potassium phosphate buffer (50 mM, pH 8.0). After 12 hours, the hydroxylation products formed in these reactions were extracted with dichloromethane and quantified by HPLC and LC-MS.

For CC1C(=O)OC2OC3(C)CCC4C(C)[C@H](F)CC1C24OO3 (stereo partly drawn) [Compound 5, 7(R)-fluoro-artemisinin], the survival rate (P. berghei ANKA; intraperitoneal injections starting from day 3-5 post infection) was 80% and the “fold higher survival rate than in the absence of treatment” value (P. berghei ANKA; intraperitoneal) was 2 fold.

In the case of CCCCCCCCCCCC(=O)O [laurate], the Kd (wild-type P450BM3) is given as 270 µM.

For COC(=O)CCC(=O)O[C@@H]1O[C@@H]2O[C@@]3(C)CC[C@H]4[C@H](C)CC[C@@H]([C@H]1C)[C@@]24OO3 [artesunate methyl ester], the “catalytic activity relative to that displayed in the presence of artemisinin” value [1] was “ca. 80%”.
